Article PMC10994559 (PLOS Neglected Tropical Diseases, 2024)

Test system: T. brucei brucei BSF
Test: T. brucei BSF viability, resazurin reduction
Type: cell-based, Trypanosoma brucei brucei
Conditions: Trypanosoma brucei, 2.5 µM; read-out: viability, T.brucei (2.5 µM)

For `COc1ccc(NC[C@H](O)[C@@H](N)Cc2ccccc2)cc1` [LTC-1042, (2S,3S)-3-Amino-1-((4-methoxyphenyl)amino)-4-phenylbutan-2-ol], which viability at 2.5 µM is on record?
Its viability at 2.5 µM is 77.3 ± 2.39%.

With `Cc1ccc(NC[C@H](O)[C@@H](N)Cc2ccccc2)cc1` [LTC-1043, (2S,3S)-3-Amino-4-phenyl-1-(p-tolylamino)butan-2-ol] as the compound, how does the viability at 2.5 µM read?
The viability at 2.5 µM was 80.6 ± 2.56%.

Same assay, conditions: Trypanosoma brucei, 25 µM; read-out: viability, T.brucei (25 µM)

With `COc1ccc(NC[C@H](O)[C@@H](N)Cc2ccccc2)cc1` [LTC-1042, (2S,3S)-3-Amino-1-((4-methoxyphenyl)amino)-4-phenylbutan-2-ol] as the compound, how does the viability at 25 µM read?
The viability at 25 µM was 2.38 ± 1.15%.

For `Cc1ccc(NC[C@H](O)[C@@H](N)Cc2ccccc2)cc1` [LTC-1043, (2S,3S)-3-Amino-4-phenyl-1-(p-tolylamino)butan-2-ol], which viability at 25 µM is on record?
The viability at 25 µM was 2.22 ± 1.09%.

Test system: not given
Test: not given
Conditions: not given

For `COc1ccc(NC[C@H](O)[C@@H](N)Cc2ccccc2)cc1` [LTC-1042, (2S,3S)-3-Amino-1-((4-methoxyphenyl)amino)-4-phenylbutan-2-ol], which melting point is on record?
Its melting point is 78 to 80 °C.

For `Cc1ccc(NC[C@H](O)[C@@H](N)Cc2ccccc2)cc1` [LTC-1043, (2S,3S)-3-Amino-4-phenyl-1-(p-tolylamino)butan-2-ol], which melting point is on record?
The melting point was 57 to 59 °C.

Test system: L. major promastigotes
Test: L. major promastigote viability, resazurin reduction
Type: cell-based, Leishmania major
Conditions: Leishmania major, 72 h, read-out: viability, L.major promastigote (25 µM)
Description: (§1) The infectivity of the parasites was boosted by passaging in Balb/c mice and culturing the infected lymph nodes after six weeks. L. infantum (MHOM / BR / 76 / M4192) parasite was passaged in the same media formulation with 0.5% urine.

With `COc1ccc(NC[C@H](O)[C@@H](N)Cc2ccccc2)cc1` [LTC-1042, (2S,3S)-3-Amino-1-((4-methoxyphenyl)amino)-4-phenylbutan-2-ol] as the compound, how does the viability at 25 µM read?
The viability at 25 µM was 86.4 ± 2.46%.

For `Cc1ccc(NC[C@H](O)[C@@H](N)Cc2ccccc2)cc1` [LTC-1043, (2S,3S)-3-Amino-4-phenyl-1-(p-tolylamino)butan-2-ol], which viability at 25 µM is on record?
Its viability at 25 µM is 83.4 ± 5.16%.

Same assay, conditions: Leishmania major; 25 µM; read-out: viability, L.major promastigote (25 µM)

With `COc1ccc(NC[C@H](O)[C@@H](N)Cc2ccccc2)cc1` [LTC-1042, (2S,3S)-3-Amino-1-((4-methoxyphenyl)amino)-4-phenylbutan-2-ol] as the compound, how does the viability at 25 µM read?
The viability at 25 µM was 0.03 ± 0.1%.

With `Cc1ccc(NC[C@H](O)[C@@H](N)Cc2ccccc2)cc1` [LTC-1043, (2S,3S)-3-Amino-4-phenyl-1-(p-tolylamino)butan-2-ol] as the compound, how does the viability at 25 µM read?
Its viability at 25 µM is 22.1 ± 5%.

Test system: intracellular L. infantum amastigotes
Test: Parasite rescue assay (intramacrophage, J774 infected with L. infantum)
Type: cell-based, Leishmania infantum
Conditions: J774, 25 µM; intracellular amastigote; read-out: viability, intracellular L. major amastigote (25 µM)

With `COc1ccc(NC[C@H](O)[C@@H](N)Cc2ccccc2)cc1` [LTC-1042, (2S,3S)-3-Amino-1-((4-methoxyphenyl)amino)-4-phenylbutan-2-ol] as the compound, how does the viability at 25 µM read?
Its viability at 25 µM is 67.6 ± 19.8%.

With `Cc1ccc(NC[C@H](O)[C@@H](N)Cc2ccccc2)cc1` [LTC-1043, (2S,3S)-3-Amino-4-phenyl-1-(p-tolylamino)butan-2-ol] as the compound, how does the viability at 25 µM read?
The viability at 25 µM was 63.4 ± 7.61%.

Test system: E. histolytica
Test: E. histolytica viability, ATP luminescence (Cell titer glo)
Type: cell-based, Entamoeba histolytica
Conditions: Entamoeba histolytica; read-out: viability, E.histolytica (2.5 µM)
Outline: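 E. histolytica strain B2-5 at 2.5x10^4 cells/ml was exposed to compound for 48 h at 37 °C under anaerobic conditions, with viability read as ATP luminescence (CellTiter-Glo). The primary screen used 25 μM in triplicate, and follow-up potency runs used 9–16-point ranges spanning 0.01–100 μM.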

Which viability at 2.5 µM does the source give for `COc1ccc(NC[C@H](O)[C@@H](N)Cc2ccccc2)cc1` [LTC-1042, (2S,3S)-3-Amino-1-((4-methoxyphenyl)amino)-4-phenylbutan-2-ol] here?
The viability at 2.5 µM was 106 ± 18%.

With `Cc1ccc(NC[C@H](O)[C@@H](N)Cc2ccccc2)cc1` [LTC-1043, (2S,3S)-3-Amino-4-phenyl-1-(p-tolylamino)butan-2-ol] as the compound, how does the viability at 2.5 µM read?
Its viability at 2.5 µM is 74.3 ± 21.6%.

Same assay, conditions: Entamoeba histolytica; read-out: viability, E.histolytica (25 µM)

Which viability at 25 µM does the source give for `COc1ccc(NC[C@H](O)[C@@H](N)Cc2ccccc2)cc1` [LTC-1042, (2S,3S)-3-Amino-1-((4-methoxyphenyl)amino)-4-phenylbutan-2-ol] here?
Its viability at 25 µM is 125 ± 46.5%.

Which viability at 25 µM does the source give for `Cc1ccc(NC[C@H](O)[C@@H](N)Cc2ccccc2)cc1` [LTC-1043, (2S,3S)-3-Amino-4-phenyl-1-(p-tolylamino)butan-2-ol] here?
The viability at 25 µM was 97.3 ± 19.4%.

Test system: L. infantum promastigotes
Test: L. infantum promastigote viability, resazurin reduction
Type: cell-based, Leishmania infantum
Conditions: Leishmania infantum; 2.5 µM; sheet LTC_compound_viability; value ± spread; read-out: viability, L. infantum promastigote (2.5 µM)
Description: as §1

With `COc1ccc(NC[C@H](O)[C@@H](N)Cc2ccccc2)cc1` [LTC-1042, (2S,3S)-3-Amino-1-((4-methoxyphenyl)amino)-4-phenylbutan-2-ol] as the compound, how does the viability at 2.5 µM read?
Its viability at 2.5 µM is 81.7 ± 3.08%.

With `Cc1ccc(NC[C@H](O)[C@@H](N)Cc2ccccc2)cc1` [LTC-1043, (2S,3S)-3-Amino-4-phenyl-1-(p-tolylamino)butan-2-ol] as the compound, how does the viability at 2.5 µM read?
The viability at 2.5 µM was 71.6 ± 5.44%.

Same assay, conditions: Leishmania infantum; 25 µM; sheet LTC_compound_viability; value ± spread; read-out: viability, L. infantum promastigote (25 µM)

With `COc1ccc(NC[C@H](O)[C@@H](N)Cc2ccccc2)cc1` [LTC-1042, (2S,3S)-3-Amino-1-((4-methoxyphenyl)amino)-4-phenylbutan-2-ol] as the compound, how does the viability at 25 µM read?
Its viability at 25 µM is 1.85 ± 0.19%.

Which viability at 25 µM does the source give for `Cc1ccc(NC[C@H](O)[C@@H](N)Cc2ccccc2)cc1` [LTC-1043, (2S,3S)-3-Amino-4-phenyl-1-(p-tolylamino)butan-2-ol] here?
Its viability at 25 µM is 16.9 ± 2.12%.

Test system: L. major axenic amastigotes
Test: L. major axenic amastigote viability, resazurin reduction
Conditions: Leishmania major, read-out: viability, L.major amastigote (25 µM)
Outline: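 Axenic L. major LV561 amastigotes were grown in Grace medium with 20% FCS, pH 5.4, at 33°C and seeded at 0.5x10^5 cells/well with compounds for 72 h. Resazurin was then added for 6 h and fluorescence read at ex 550/em 590 nm; hits were retested at 2.5 μM.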

Which viability at 25 µM does the source give for `COc1ccc(NC[C@H](O)[C@@H](N)Cc2ccccc2)cc1` [LTC-1042, (2S,3S)-3-Amino-1-((4-methoxyphenyl)amino)-4-phenylbutan-2-ol] here?
The viability at 25 µM was 39 ± 23.4%.

With `Cc1ccc(NC[C@H](O)[C@@H](N)Cc2ccccc2)cc1` [LTC-1043, (2S,3S)-3-Amino-4-phenyl-1-(p-tolylamino)butan-2-ol] as the compound, how does the viability at 25 µM read?
Its viability at 25 µM is 22.1 ± 2.55%.

Same assay, conditions: Leishmania major, read-out: viability, L.major amastigote(2.5 µM)

For `Cc1ccc(NC[C@H](O)[C@@H](N)Cc2ccccc2)cc1` [LTC-1043, (2S,3S)-3-Amino-4-phenyl-1-(p-tolylamino)butan-2-ol], which viability at 2.5 µM is on record?
The viability at 2.5 µM was 76.2 ± 2.46%.

Test system: not listed separately
Test: Cytotoxicity assay J774, resazurin reduction
Type: cell-based, murine
Conditions: mouse, J774 macrophage cells; 2.5 µM; read-out: viability, J774 (2.5 µM)
Outline: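 J774 and HepG2 cells were seeded at 0.5x10^5 cell/well and exposed to serially diluted compounds for 72 h at 37°C, 5% CO2. Viability was read by fluorescence resazurin reduction (λEx 550 nm, λEm 590 nm).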

With `COc1ccc(NC[C@H](O)[C@@H](N)Cc2ccccc2)cc1` [LTC-1042, (2S,3S)-3-Amino-1-((4-methoxyphenyl)amino)-4-phenylbutan-2-ol] as the compound, how does the viability at 72 h, 2.5 µM read?
Its viability at 72 h, 2.5 µM is 93.9 ± 4.73%.

For `Cc1ccc(NC[C@H](O)[C@@H](N)Cc2ccccc2)cc1` [LTC-1043, (2S,3S)-3-Amino-4-phenyl-1-(p-tolylamino)butan-2-ol], which viability at 72 h, 2.5 µM is on record?
The viability at 72 h, 2.5 µM was 95.7 ± 7.77%.

Same assay, conditions: mouse, J774 macrophage cells; 25 µM; read-out: viability, J774 (25 µM)

With `COc1ccc(NC[C@H](O)[C@@H](N)Cc2ccccc2)cc1` [LTC-1042, (2S,3S)-3-Amino-1-((4-methoxyphenyl)amino)-4-phenylbutan-2-ol] as the compound, how does the viability at 72 h, 25 µM read?
Its viability at 72 h, 25 µM is 97.8 ± 15.5%.

Which viability at 72 h, 25 µM does the source give for `Cc1ccc(NC[C@H](O)[C@@H](N)Cc2ccccc2)cc1` [LTC-1043, (2S,3S)-3-Amino-4-phenyl-1-(p-tolylamino)butan-2-ol] here?
The viability at 72 h, 25 µM was 93.5 ± 8.83%.

Test system: T. cruzi trypomastigotes
Test: T. cruzi viability, resazurin reduction
Type: cell-based, Trypanosoma cruzi
Conditions: Trypanosoma cruzi, 2.5 µM; read-out: viability, T.cruzi (2.5 µM)
Outline: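 Y-strain trypomastigotes kept in supplemented liver infusion tryptose broth with 10% FCS, pH 7.2, at 28°C. Viability by fluorescence resazurin reduction; single-point screen at 2.5 μM, then 18-concentration dose response. Amphotericin B as control drug.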

Which viability at 2.5 µM does the source give for `COc1ccc(NC[C@H](O)[C@@H](N)Cc2ccccc2)cc1` [LTC-1042, (2S,3S)-3-Amino-1-((4-methoxyphenyl)amino)-4-phenylbutan-2-ol] here?
Its viability at 2.5 µM is 61.9 ± 1.61%.

For `Cc1ccc(NC[C@H](O)[C@@H](N)Cc2ccccc2)cc1` [LTC-1043, (2S,3S)-3-Amino-4-phenyl-1-(p-tolylamino)butan-2-ol], which viability at 2.5 µM is on record?
Its viability at 2.5 µM is 61.9 ± 0.89%.

Same assay, conditions: Trypanosoma cruzi, 25 µM; read-out: viability, T.cruzi (25 µM)

With `COc1ccc(NC[C@H](O)[C@@H](N)Cc2ccccc2)cc1` [LTC-1042, (2S,3S)-3-Amino-1-((4-methoxyphenyl)amino)-4-phenylbutan-2-ol] as the compound, how does the viability at 25 µM read?
The viability at 25 µM was 18.6 ± 2.9%.

Which viability at 25 µM does the source give for `Cc1ccc(NC[C@H](O)[C@@H](N)Cc2ccccc2)cc1` [LTC-1043, (2S,3S)-3-Amino-4-phenyl-1-(p-tolylamino)butan-2-ol] here?
Its viability at 25 µM is 31.9 ± 1.78%.
